Patent US5332733A, “Heterocyclically substituted piperazinoakylbenzoxazine and piperazinoalkylbenzothiazine compounds, processes for preparing them, and medicaments containing them” (Kali-Chemie Pharma GmbH, priority 1990, dated 1994)

Tested on: PAF-induced aggregation of rabbit blood platelets
Experiment: Anti-PAF activity in vitro, PAF-induced platelet aggregation
Format: cell-based, rabbit (New Zealand hybrids)
Conditions: Oryctolagus cuniculus, test substance 10^-5 mole/l, pH 7.4
Excerpt: 4. Determination of Anti-PAF Activity In Vitro
PAF (=Platelet Activating Factor) is a phospholipid mediator which has many effects. Activation of platelet aggregation induces protracted broncho-contraction and hyper-reactivity of the air paths.
In this test the effect of the test substances on platelet aggregation induced by adding PAF to a suspension of platelets obtained from rabbit blood is investigated using the method described by Mikashima et al. (Jap. J. Pharmacol. 44 (1987) 387-391).
A suspension of platelets obtained from rabbit blood containing 4×10^9 platelets/ml in a modified Tyrode buffer solution (=Tyrode solution with 1.3 mM/l CaCl2 and 2.5 g/l gelatine added) adjusted to pH 7.4 was used. Tyrode solution is an aqueous solution containing 136.9 mmoles NaCl, 2.68 mmoles KCl, 2.31 mmoles CaCl2, 1.0 mmole MgCl2, 11.9 mmoles NaHCO3, 1.45 mmoles NaH2 PO4 and 5.55 mmoles glucose per liter. The platelets were obtained from 10 ml blood samples from each of three rabbits (New Zealand hybrids, body weight 3-4 kg). For this the blood samples were treated with ethylenediamine tetraacetic acid and washed according to the method of Artley et al. (Brit. J. Hematol. 19 (1970), 7-17). A platelet-rich plasma was then initially separated by centrifuging (20 minutes at 400×g). The blood platelets were separated from the plasma by recentrifuging for 15 minutes at 1,400×g. The platelets remaining as sediment after centrifuging were resuspended in a Tyrode buffer solution (but without calcium). 0.4 mmole of lysine acetylsalicylate was then added, and after 15 minutes the platelets were sedimented again. The sediment was resuspended in the aforementioned modified Tyrode buffer solution, and the number of platelets in the resulting suspension was adjusted to the desired content.
A 40×10^-9 molar PAF solution was used as a reagent. This solution was made from a 1.8×10^-3 molar stock solution in chloroform. For this purpose a 10 μl sample of the stock solution was evaporated to dryness and redissolved in 180 μl of the modified Tyrode solution to which 0.25% of lipid-free bovine serum albumin had been added. From this 10^-5 molar working solutions were then prepared and stored frozen. Samples of these solutions were appropriately diluted for the tests.
To carry out the test 50 μl of the platelet suspension and 10 μl of a 40×10^-5 molar solution of the compound being investigated were added with stirring (1,000 rpm) to 330 μl of the modified Tyrode buffer solution in an aggregation tube provided with a small magnetic stirrer. This corresponds to a final test substance concentration of 10^-5 mole/l. After 90 seconds preincubation time, 10 μl of the PAF preparation were added. The aggregation occurring in the aggregation tubes was measured over 4-5 minutes with the aid of a computerized aggregometer.
The aggregation which occurred in test tubes containing only platelet suspension was evaluated as 0%, whereas the aggregation which occurred in test tubes containing platelet suspension and PAF preparation was evaluated as 100%. The aggregation which still occurred during the inhibition of the PAF induced platelet aggregation due to the addition of the test substances was measured, and the resulting aggregation inhibition was calculated therefrom in %.

SMILES | inhibition at 10 µM [%]
Cc1ccnc(N2CCN(CCCC3Sc4ccccc4NC3=O)CC2)c1 (stereo not drawn) [Example 8] | 48
Cc1ccnc(N2CCN(CCCC3Oc4ccccc4NC3=O)CC2)c1 (stereo not drawn) [Example 9] | 51
Cc1ccnc(N2CCN(CCCC3Sc4ccccc4NC3=S)CC2)c1 (stereo not drawn) [Example 11] | 96
